Test results as given in PubChem BioAssay AID2060603 (Molecular Pharmacology Branch, DTP, NCI, 2025).
One block for each compound: values may come before it.

Tested on: 422866-222-R5-J1-PDC spheroid viability
Assay: Anticancer human tumor 422866-222-R5-J1-PDC patient-derived pancreatic adenocarcinoma cell line growth inhibition [CLK]
Settings: spheroids with HUVEC and MSC; for IC50: curve of first compound; for viability, T/C: stronger effect = lower value
Outline: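 Patient-derived tumor cells grown as complex spheroids with HUVEC endothelial cells and mesenchymal stem cells, treated with drug combinations. Concentrations descend in half-log steps from near clinical Cmax, or from 10 microM if Cmax unknown.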
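Further: spheroids exposed to agents for seven days before readout.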

IC50 (second compound 0.0316 µM): > 100 nM
IC50 (second compound 0.1 µM): > 100 nM
IC50 (second compound 0.316 µM): > 100 nM
IC50 (second compound 1 µM): > 100 nM
IC50 (second compound 3.16 µM): > 100 nM
IC50 (second compound 10 µM): > 100 nM
SMILES: Cn1ncnc1[C@H]1c2n[nH]c(=O)c3cc(F)cc(c23)N[C@@H]1c1ccc(F)cc1 + CNC(=O)c1ccc(Nc2nc(OC3CCCC3)c3c(-c4ccc5nc(C)oc5c4)c[nH]c3n2)c(OC)c1
viability, T/C (second compound 0.0316 µM, first compound 0.000316 µM): 105%
viability, T/C (second compound 0.0316 µM, first compound 0.001 µM): 112%
viability, T/C (second compound 0.0316 µM, first compound 0.00316 µM): 102%
viability, T/C (second compound 0.0316 µM, first compound 0.01 µM): 91.2%
viability, T/C (second compound 0.0316 µM, first compound 0.0316 µM): 89.6%
viability, T/C (second compound 0.0316 µM, first compound 0.1 µM): 78.6%
viability, T/C (second compound 0.1 µM, first compound 0.000316 µM): 98.8%
viability, T/C (second compound 0.1 µM, first compound 0.001 µM): 91%
viability, T/C (second compound 0.1 µM, first compound 0.00316 µM): 84.2%
viability, T/C (second compound 0.1 µM, first compound 0.01 µM): 89.8%
viability, T/C (second compound 0.1 µM, first compound 0.0316 µM): 74.8%
viability, T/C (second compound 0.1 µM, first compound 0.1 µM): 83.8%
viability, T/C (second compound 0.316 µM, first compound 0.000316 µM): 84.8%
viability, T/C (second compound 0.316 µM, first compound 0.001 µM): 75.2%
viability, T/C (second compound 0.316 µM, first compound 0.00316 µM): 66.3%
viability, T/C (second compound 0.316 µM, first compound 0.01 µM): 68%
viability, T/C (second compound 0.316 µM, first compound 0.0316 µM): 80.9%
viability, T/C (second compound 0.316 µM, first compound 0.1 µM): 64.7%
viability, T/C (second compound 1 µM, first compound 0.000316 µM): 75.8%
viability, T/C (second compound 1 µM, first compound 0.001 µM): 65%
viability, T/C (second compound 1 µM, first compound 0.00316 µM): 63.7%
viability, T/C (second compound 1 µM, first compound 0.01 µM): 52.4%
viability, T/C (second compound 1 µM, first compound 0.0316 µM): 52.4%
viability, T/C (second compound 1 µM, first compound 0.1 µM): 54.6%
viability, T/C (second compound 3.16 µM, first compound 0.000316 µM): 61.9%
viability, T/C (second compound 3.16 µM, first compound 0.001 µM): 73.8%
viability, T/C (second compound 3.16 µM, first compound 0.00316 µM): 60.1%
viability, T/C (second compound 3.16 µM, first compound 0.01 µM): 54.3%
viability, T/C (second compound 3.16 µM, first compound 0.0316 µM): 53.8%
viability, T/C (second compound 3.16 µM, first compound 0.1 µM): 52%
viability, T/C (second compound 10 µM, first compound 0.000316 µM): 61.8%
viability, T/C (second compound 10 µM, first compound 0.001 µM): 59.6%
viability, T/C (second compound 10 µM, first compound 0.00316 µM): 55.9%
viability, T/C (second compound 10 µM, first compound 0.01 µM): 48.6%
viability, T/C (second compound 10 µM, first compound 0.0316 µM): 65%
viability, T/C (second compound 10 µM, first compound 0.1 µM): 71.9%

SMILES: C=CC(=O)Nc1cc(Nc2nccc(-c3cn(C)c4ccccc34)n2)c(OC)cc1N(C)CCN(C)C + CN1CCN(c2cc(C(=O)Nc3cc4cc(-c5cnn(C)c5)ccc4cn3)ccn2)CC1
IC50 (second compound 0.0316 µM): > 300 nM
IC50 (second compound 0.1 µM): > 300 nM
IC50 (second compound 0.316 µM): > 300 nM
IC50 (second compound 1 µM): < 0.949 nM
IC50 (second compound 3.16 µM): < 0.949 nM
IC50 (second compound 10 µM): < 0.949 nM
viability, T/C (second compound 0.0316 µM, first compound 0.000949 µM): 122%
viability, T/C (second compound 0.0316 µM, first compound 0.003 µM): 103%
viability, T/C (second compound 0.0316 µM, first compound 0.00949 µM): 114%
viability, T/C (second compound 0.0316 µM, first compound 0.03 µM): 96%
viability, T/C (second compound 0.0316 µM, first compound 0.0949 µM): 93.9%
viability, T/C (second compound 0.0316 µM, first compound 0.3 µM): 77.8%
viability, T/C (second compound 0.1 µM, first compound 0.000949 µM): 133%
viability, T/C (second compound 0.1 µM, first compound 0.003 µM): 129%
viability, T/C (second compound 0.1 µM, first compound 0.00949 µM): 107%
viability, T/C (second compound 0.1 µM, first compound 0.03 µM): 105%
viability, T/C (second compound 0.1 µM, first compound 0.0949 µM): 94.2%
viability, T/C (second compound 0.1 µM, first compound 0.3 µM): 93.2%
viability, T/C (second compound 0.316 µM, first compound 0.000949 µM): 94%
viability, T/C (second compound 0.316 µM, first compound 0.003 µM): 87.2%
viability, T/C (second compound 0.316 µM, first compound 0.00949 µM): 93.7%
viability, T/C (second compound 0.316 µM, first compound 0.03 µM): 83.9%
viability, T/C (second compound 0.316 µM, first compound 0.0949 µM): 87.6%
viability, T/C (second compound 0.316 µM, first compound 0.3 µM): 79%
viability, T/C (second compound 1 µM, first compound 0.000949 µM): 29.3%
viability, T/C (second compound 1 µM, first compound 0.003 µM): 36.8%
viability, T/C (second compound 1 µM, first compound 0.00949 µM): 35.3%
viability, T/C (second compound 1 µM, first compound 0.03 µM): 29.3%
viability, T/C (second compound 1 µM, first compound 0.0949 µM): 30.8%
viability, T/C (second compound 1 µM, first compound 0.3 µM): 23.7%
viability, T/C (second compound 3.16 µM, first compound 0.000949 µM): 9.51%
viability, T/C (second compound 3.16 µM, first compound 0.003 µM): 9.88%
viability, T/C (second compound 3.16 µM, first compound 0.00949 µM): 10.5%
viability, T/C (second compound 3.16 µM, first compound 0.03 µM): 10.5%
viability, T/C (second compound 3.16 µM, first compound 0.0949 µM): 9.87%
viability, T/C (second compound 3.16 µM, first compound 0.3 µM): 9.45%
viability, T/C (second compound 10 µM, first compound 0.000949 µM): 2.62%
viability, T/C (second compound 10 µM, first compound 0.003 µM): 2.53%
viability, T/C (second compound 10 µM, first compound 0.00949 µM): 2.32%
viability, T/C (second compound 10 µM, first compound 0.03 µM): 1.8%
viability, T/C (second compound 10 µM, first compound 0.0949 µM): 1.99%
viability, T/C (second compound 10 µM, first compound 0.3 µM): 1.66%
